Test results reported in US20230295200A1 (REGENTS OF THE UNIVERSITY OF MICHIGAN, priority 2022, published 2023).

Key:
STAT6 protein = biological target: T1, STAT6 protein (Homo sapiens, UniProt P42226); assay: Fluorescence polarization (FP) binding assay, STAT6; details: FP competition, 5 nM fluorescein-labeled tracer, 200 nM protein, PBS pH7.4; read-out: Binding STAT6
T1 sequence (P42226 1-847): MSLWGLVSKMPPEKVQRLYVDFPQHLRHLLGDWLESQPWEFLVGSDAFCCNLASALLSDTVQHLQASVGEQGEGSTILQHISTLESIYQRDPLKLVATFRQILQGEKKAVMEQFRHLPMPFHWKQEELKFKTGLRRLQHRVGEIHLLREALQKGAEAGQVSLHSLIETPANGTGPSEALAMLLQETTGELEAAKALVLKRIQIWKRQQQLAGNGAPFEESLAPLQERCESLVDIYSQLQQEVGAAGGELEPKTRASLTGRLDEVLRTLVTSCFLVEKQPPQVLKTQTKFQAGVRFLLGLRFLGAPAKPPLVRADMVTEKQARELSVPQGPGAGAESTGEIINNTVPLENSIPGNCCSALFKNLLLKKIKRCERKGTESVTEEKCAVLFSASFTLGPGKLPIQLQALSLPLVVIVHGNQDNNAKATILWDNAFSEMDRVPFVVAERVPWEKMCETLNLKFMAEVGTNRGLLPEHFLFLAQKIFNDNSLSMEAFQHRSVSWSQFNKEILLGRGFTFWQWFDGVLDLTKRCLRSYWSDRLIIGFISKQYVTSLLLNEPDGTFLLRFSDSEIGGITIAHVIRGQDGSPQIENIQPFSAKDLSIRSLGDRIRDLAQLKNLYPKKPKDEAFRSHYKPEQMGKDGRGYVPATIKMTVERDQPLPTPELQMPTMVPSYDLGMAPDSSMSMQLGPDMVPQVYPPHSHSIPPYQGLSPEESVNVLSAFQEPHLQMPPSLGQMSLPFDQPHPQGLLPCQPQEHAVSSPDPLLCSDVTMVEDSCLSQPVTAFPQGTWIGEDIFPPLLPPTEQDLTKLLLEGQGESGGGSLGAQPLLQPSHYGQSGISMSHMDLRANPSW
Summary of the method: (§1)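 Competitive FP read-out with 5 nM fluorescein-labeled tracer and 200 nM STAT5 or STAT6 protein in PBS pH 7.4 containing 0.01% BGG, 0.01% Tween-20 and 2 mM DTT. Plates were shaken 15 min, then equilibrated 1 h at room temperature; inhibition constants came from nonlinear curve fitting.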

STAT5A = biological target: T2, STAT5A (Homo sapiens, UniProt P42229); assay: Fluorescence polarization (FP) binding assay, STAT5A; details: FP competition, 5 nM fluorescein-labeled tracer, 200 nM protein, PBS pH7.4
T2 sequence (P42229 1-794): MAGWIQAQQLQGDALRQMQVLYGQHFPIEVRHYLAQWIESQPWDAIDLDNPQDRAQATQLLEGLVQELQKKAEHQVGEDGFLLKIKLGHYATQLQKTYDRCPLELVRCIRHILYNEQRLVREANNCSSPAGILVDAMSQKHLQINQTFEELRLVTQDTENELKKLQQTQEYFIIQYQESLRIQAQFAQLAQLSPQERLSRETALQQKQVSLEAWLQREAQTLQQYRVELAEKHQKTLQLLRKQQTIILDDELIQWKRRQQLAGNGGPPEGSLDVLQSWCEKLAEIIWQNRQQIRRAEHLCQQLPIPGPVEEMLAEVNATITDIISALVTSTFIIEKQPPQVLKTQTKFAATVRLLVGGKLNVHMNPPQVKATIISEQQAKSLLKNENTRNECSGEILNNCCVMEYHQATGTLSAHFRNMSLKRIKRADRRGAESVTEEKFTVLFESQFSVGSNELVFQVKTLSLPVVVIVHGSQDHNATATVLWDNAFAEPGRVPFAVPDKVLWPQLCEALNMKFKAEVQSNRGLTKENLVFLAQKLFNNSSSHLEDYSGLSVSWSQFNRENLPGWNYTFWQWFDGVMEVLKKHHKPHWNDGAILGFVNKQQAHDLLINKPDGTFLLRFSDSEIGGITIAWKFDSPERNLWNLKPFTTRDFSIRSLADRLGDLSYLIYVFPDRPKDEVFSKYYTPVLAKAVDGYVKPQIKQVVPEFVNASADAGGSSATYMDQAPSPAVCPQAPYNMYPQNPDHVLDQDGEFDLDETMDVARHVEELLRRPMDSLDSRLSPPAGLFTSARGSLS
Summary of the method: as §1

Row | SMILES | Ki (STAT6 protein) | Ki (STAT5A)
1 | CC(C)(C)[C@H](NC(=O)c1cc2cc(C(F)(F)P(=O)(O)O)ccc2[nH]1)C(=O)N1CCC[C@H]1c1ncc(Cc2ccccc2)s1 [Compound 25, ((2-(((S)-1-((S)-2-(5-benzylthiazol-2-yl)pyrrolidin-1-yl)-3,3-dimethyl-1-oxobutan-2-yl)carbamoyl)-1H-indol-5-yl)difluoromethyl)phosphonic acid] | > 10 µM | 1 to 10 µM
2 | CC(C)(C)[C@H](NC(=O)/C=C/c1ccc(C(F)(F)P(=O)(O)O)cc1)C(=O)N1CCC[C@H]1c1ncc(Cc2ccccc2)s1 [Compound 26, ((4-((E)-3-(((S)-1-((S)-2-(5-benzylthiazol-2-yl)pyrrolidin-1-yl)-3,3-dimethyl-1-oxobutan-2-yl)amino)-3-oxoprop-1-en-1-yl)phenyl)difluoromethyl)phosphonic acid] | > 10 µM | > 10 µM
3 | O=C(NC(C(=O)N1CCC[C@H]1C(=O)N1CCc2ccccc2C1)C1CCNCC1)c1cc2cc(C(F)(F)P(=O)(O)O)ccc2[nH]1 (stereo partly drawn) [Compound 28, (difluoro(2-((2-oxo-1-(piperidin-4-yl)-2-((S)-2-(1,2,3,4-tetrahydroisoquinoline-2-carbonyl)pyrrolidin-1-yl)ethyl)carbamoyl)-1H-indol-5-yl)methyl)phosphonic acid] | > 10 µM | > 10 µM
4 | O=C(/C=C/c1ccc(C(F)(F)P(=O)(O)O)cc1)NC(C(=O)N1CCC[C@H]1C(=O)N1CCc2ccccc2C1)C1CCNCC1 (stereo partly drawn) [Compound 29, (difluoro(4-((E)-3-oxo-3-((2-oxo-1-(piperidin-4-yl)-2-((S)-2-(1,2,3,4-tetrahydroisoquinoline-2-carbonyl)pyrrolidin-1-yl)ethyl)amino)prop-1-en-1-yl)phenyl)methyl)phosphonic acid] | > 10 µM | > 10 µM
5 | CC(C)(C)[C@H](NC(=O)c1cc2cc(C(F)(F)P(=O)(O)O)ccc2[nH]1)C(=O)N1CCC[C@H]1C(=O)Nc1nc(-c2ccccc2)cs1 [Compound 30, ((2-(((S)-3,3-dimethyl-1-oxo-1-((S)-2-((4-phenylthiazol-2-yl)carbamoyl)pyrrolidin-1-yl)butan-2-yl)carbamoyl)-1H-indol-5-yl)difluoromethyl)phosphonic acid] | > 10 µM | > 10 µM
6 | CC(C)(C)[C@H](NC(=O)c1cc2cc(C(F)(F)P(=O)(O)O)ccc2[nH]1)C(=O)N1CCC[C@H]1C(=O)Nc1ncc(-c2ccccc2)s1 [Compound 31, ((2-(((S)-3,3-dimethyl-1-oxo-1-((S)-2-((5-phenylthiazol-2-yl)carbamoyl)pyrrolidin-1-yl)butan-2-yl)carbamoyl)-1H-indol-5-yl)difluoromethyl)phosphonic acid] | > 10 µM | 0.1 to 1 µM

Next, values leading:

Row | Ki (STAT6 protein) | Ki (STAT5A) | SMILES
7 | 1 to 10 µM | > 10 µM | CC(C)(C)[C@H](NC(=O)c1cc2cc(C(F)(F)P(=O)(O)O)ccc2[nH]1)C(=O)N1CCC[C@H]1C(=O)N[C@@H]1C[C@H]1c1ccccc1 [Compound 16, ((2-(((S)-3,3-dimethyl-1-oxo-1-((S)-2-(((1R,2S)-2-phenylcyclopropyl)carbamoyl)pyrrolidin-1-yl)butan-2-yl)carbamoyl)-1H-indol-5-yl)difluoromethyl)phosphonic acid]
8 | 1 to 10 µM | 1 to 10 µM | CC(C)(C)[C@H](NC(=O)c1cc2cc(C(F)(F)P(=O)(O)O)ccc2[nH]1)C(=O)N1CCC[C@H]1c1nc(Cc2ccccc2)cs1 [Compound 17, ((2-(((S)-1-((S)-2-(4-benzylthiazol-2-yl)pyrrolidin-1-yl)-3,3-dimethyl-1-oxobutan-2-yl)carbamoyl)-1H-indol-5-yl)difluoromethyl)phosphonic acid]
9 | > 10 µM | > 10 µM | CC(C)(C)[C@H](NC(=O)/C=C/c1ccc(C(F)(F)P(=O)(O)O)cc1)C(=O)N1CCC[C@H]1c1nc(Cc2ccccc2)cs1 [Compound 18, ((4-((E)-3-(((S)-1-((S)-2-(4-benzylthiazol-2-yl)pyrrolidin-1-yl)-3,3-dimethyl-1-oxobutan-2-yl)amino)-3-oxoprop-1-en-1-yl)phenyl)difluoromethyl)phosphonic acid]
10 | 1 to 10 µM | > 10 µM | CC(C)(C)[C@H](NC(=O)c1cc2cc(C(F)(F)P(=O)(O)O)ccc2[nH]1)C(=O)N1CCC[C@H]1c1nc(-c2ccccc2)cs1 [Compound 19, ((2-(((S)-3,3-dimethyl-1-oxo-1-((S)-2-(4-phenylthiazol-2-yl)pyrrolidin-1-yl)butan-2-yl)carbamoyl)-1H-indol-5-yl)difluoromethyl)phosphonic acid]
11 | > 10 µM | > 10 µM | CC(C)(C)[C@H](NC(=O)/C=C/c1ccc(C(F)(F)P(=O)(O)O)cc1)C(=O)N1CCC[C@H]1c1nc(-c2ccccc2)cs1 [Compound 20, ((4-((E)-3-(((S)-3,3-dimethyl-1-oxo-1-((S)-2-(4-phenylthiazol-2-yl)pyrrolidin-1-yl)butan-2-yl)amino)-3-oxoprop-1-en-1-yl)phenyl)difluoromethyl)phosphonic acid]
12 | 1 to 10 µM | > 10 µM | CC(C)(C)[C@H](NC(=O)c1cc2cc(C(F)(F)P(=O)(O)O)ccc2[nH]1)C(=O)N1CCC[C@H]1c1ncc(-c2ccccc2)s1 [Compound 21, ((2-(((S)-3,3-dimethyl-1-oxo-1-((S)-2-(5-phenylthiazol-2-yl)pyrrolidin-1-yl)butan-2-yl)carbamoyl)-1H-indol-5-yl)difluoromethyl)phosphonic acid]
13 | > 10 µM | > 10 µM | CC(C)(C)[C@H](NC(=O)/C=C/c1ccc(C(F)(F)P(=O)(O)O)cc1)C(=O)N1CCC[C@H]1c1ncc(-c2ccccc2)s1 [Compound 22, ((4-((E)-3-(((S)-3,3-dimethyl-1-oxo-1-((S)-2-(5-phenylthiazol-2-yl)pyrrolidin-1-yl)butan-2-yl)amino)-3-oxoprop-1-en-1-yl)phenyl)difluoromethyl)phosphonic acid]
14 | 1 to 10 µM | 1 to 10 µM | O=C(N[C@@H](CC1CCCCC1)C(=O)N1CCC[C@H]1C(=O)N1CCc2ccccc2C1)c1cc2cc(C(F)(F)P(=O)(O)O)ccc2[nH]1 [Compound 23, ((2-(((S)-3-cyclohexyl-1-oxo-1-((S)-2-(1,2,3,4-tetrahydroisoquinoline-2-carbonyl)pyrrolidin-1-yl)propan-2-yl)carbamoyl)-1H-indol-5-yl)difluoromethyl)phosphonic acid]
15 | > 10 µM | > 10 µM | O=C(/C=C/c1ccc(C(F)(F)P(=O)(O)O)cc1)N[C@@H](CC1CCCCC1)C(=O)N1CCC[C@H]1C(=O)N1CCc2ccccc2C1 [Compound 24, ((4-((E)-3-(((S)-3-cyclohexyl-1-oxo-1-((S)-2-(1,2,3,4-tetrahydroisoquinoline-2-carbonyl)pyrrolidin-1-yl)propan-2-yl)amino)-3-oxoprop-1-en-1-yl)phenyl)difluoromethyl)phosphonic acid]
16 | 1 to 10 µM | > 10 µM | O=C(N[C@@H](Cc1ccncc1)C(=O)N1CCC[C@H]1C(=O)N1CCc2ccccc2C1)c1cc2cc(C(F)(F)P(=O)(O)O)ccc2[nH]1 [Compound 27, (difluoro(2-(((S)-1-oxo-3-(pyridin-4-yl)-1-((S)-2-(1,2,3,4-tetrahydroisoquinoline-2-carbonyl)pyrrolidin-1-yl)propan-2-yl)carbamoyl)-1H-indol-5-yl)methyl)phosphonic acid]
